Measured values as given in US4863898A, “Amino acid chelated compositions for delivery to specific biological tissue sites” (priority 1986, dated 1989).
Where two headings read alike, the source gives them in different places.

Columns and labels:
[1] = radioactive zinc in tissues after injection into the jugular vein (Example IV); type: in vivo; settings: rats, two hours post injection, group mean
Method: The method of Example III was again utilized except that the manganese was replaced by zinc. […] The same dosage as in Example III was administered. Only six rats were utilized for this experiment, three in each group, and they were sacrificed two hours post injection into the jugular vein. Six tissues, i.e. brain, skeletal muscle, liver, hypothalamus, pituitary and uterus were analyzed for radioactive zinc with the following mean results for each group reported in terms of cc/min/mg of tissue.

[2] = radioactive zinc in male sex tissues after intravenous dosage (Example II); settings: rats, intravenous 0.06 mg zinc, 24 hours post treatment, group average
Method: Three groups of rats, six in each group, weighing 250 gms±10 gms. were given an intravenous dosage, of 0.06 mg zinc containing 10 microcuries of radioactive zinc.
Each rat was sacrificed 24 hours post treatment and the testes, epididymis, and seminal visicle of each were exposed, excised and a determination was made of the amount of radioactive zinc in each.

[3] = stability constant of amino acid chelate; type: physicochemical
From the text: The determination of stability constants of amino acid chelates is well documented in U.S. Pat. No. 4,167,564 and the means by which amino acid chelates may be formulated to provide optimal stability constants within the required ranges are disclosed in U.S. Pat. Nos. 4,176,564 and 4,172,072.

[4] = female rats, intravenous 0.06 mg Ca, after two hours
Method: Six female rats, weighing 250 gms.±10 gms., were divided into two groups. All rats were anethetized with 0.15 mls sodium phenobarbital USP. […] To the other three, the same amount of calcium was administered in the form a calcium chloride.
After two hours, all of he rats were sacrificed and the hypothalamus was removed and read for radioactivity.

[5] = parameters: species or system rats; settings: rat, in vivo
From the text: Leucine was used as the ligand and zinc as the metal. Composition A is therefore a mixture, or at best a complex consisting of one mole of leucine (mole weight 131.17) and one more of zinc chloride. […] Composition B consisted of two moles of leucine admixed with one mole of zinc chloride to form a mixture. […] Composition A contained leucine equivalent to 10 microliters of 0.76M. leucine and was adjusted to pH 9 with 20 microliters of 0.05 N NaOH. Composition B contained leucine equivalent to 20 microliters of 0.76M. leucine containing 20 microliters distilled water in lieu of pH adjustment. The pH of this solution was about 3. Composition C contained the same ingredients as Composition B except in chelated form and the pH was adjusted to 9 with 20 microliters of 0.13M Na2 CO3. The procedure of Example lI was fo lowed using three rats in each group. Upon sacrificing, blood was drawn and certain tissues excised to determine the amount of radioactive zinc which had migrated to the blood and tissues two hours post injection.

[Cl-].[Cl-].[Zn+2] [Zinc Chloride, zinc chloride]
radioactive zinc in Brain [1]: 5.1 cc/min/mg | radioactive zinc in Hypothalamus [1]: 3.0 cc/min/mg | radioactive zinc in Liver [1]: 94.2 cc/min/mg | radioactive zinc in Pituitary [1]: 17.0 cc/min/mg | radioactive zinc in Skeletal Muscle [1]: 5.2 cc/min/mg | radioactive zinc in Uterus [1]: 14.0 cc/min/mg | radioactive zinc in Epididymis [2]: Negligible | radioactive zinc in Seminal Vesicle [2]: Negligible | radioactive zinc in Testes [2]: Negligible

zinc-arginine chelate [GROUP I]
stability constant [3]: 10^7

[Ca+2].[Cl-].[Cl-] [inorganic calcium, calcium chloride]
radioactivity in hypothalamus, mean corrected counts per minute per milligram of tissue [4]: 67.1±8.4 cc/min/mg

CC(C)C[C@H](N)C(=O)[O-].CC(C)C[C@H](N)C(=O)[O-].[Zn+2] [Comp. C, zinc-leucine amino acid chelate]
radioactive zinc in Blood [5]: 1.64 cc/min/mg | radioactive zinc in Heart [5]: 6.32 cc/min/mg | radioactive zinc in Kidney [5]: 8.55 cc/min/mg | radioactive zinc in Liver [5]: 8.65 cc/min/mg | radioactive zinc in Muscle [5]: 3.88 cc/min/mg | radioactive zinc, Total of blood and tissues [5]: 31.45 cc/min/mg

NCC(=O)[O-].NCC(=O)[O-].[Zn+2] [GROUP II, zinc-glycine chelate]
stability constant [3]: 10^7
